Laboratory results: US7446199B2, “Compositions useful as inhibitors of protein kinases” (Vertex Pharmaceuticals Incorporated, priority 2003, dated 2008)

Legend:
Type in all cases: biochemical
c-Met = c-Met (Homo sapiens, UniProt P08581); assay: Ki determination for the inhibition of c-Met, coupled enzyme system; settings: 200 μM ATP, 10 μM polyGluTyr, 80 nM c-Met, 30° C.
Protocol: Compounds were screened for their ability to inhibit c-Met kinase activity using a standard coupled enzyme system (Fox et al., Protein Sci. 1998, 7, 2249). Reactions were carried out in a solution containing 100 mM HEPES (pH 7.5), 10 mM MgCl2, 25 mM NaCl, 300 μM NADH, 1 mM DTT, and 1.5% DMSO. Final substrate concentrations in the assay were 200 μM ATP (Sigma Chemicals, St Louis, Mo.) and 10 μM polyGluTyr (Sigma Chemical Company, St. Louis). Reactions were carried out at 30° C. and 80 nM c-Met. Final concentrations of the components of the coupled enzyme system were 2.5 mM phosphoenolpyruvate, 300 μM NADH, 30 μg/ml pyruvate kinase and 10 μg/ml lactate dehydrogenase.
An assay stock buffer solution was prepared containing all of the reagents listed above with the exception of ATP and a test compound of the present invention. The assay stock buffer solution (175 μl) was incubated in a 96 well plate with 5 μl of the test compound of the present invention at final concentrations spanning 0.006 μM to 12.5 μM at 30° C. for 10 minutes. Typically, a 12-point titration was conducted by preparing serial dilutions (from 10 mM compound stocks) with DMSO of the test compounds of the present invention in daughter plates. The reaction was initiated by the addition of 20 μl of ATP (final concentration 200 μM). Rates of reaction were obtained using a Molecular Devices Spectramax plate reader (Sunnyvale, Calif.) over 10 minutes at 30° C. The Ki values were determined from the rate data as a function of inhibitor concentration.

GSK-3β, (AA 1-420) = GSK-3β, (AA 1-420) (Homo sapiens, UniProt P49841); assay: GSK-3 inhibition assay, coupled enzyme system; settings: 20 μM ATP, 300 μM peptide, 20 nM GSK-3b, 30° C.; read-out: Ki values (GSK3)
Sequence of GSK-3β, (AA 1-420) (P49841 whole entry, the tested form may be a part): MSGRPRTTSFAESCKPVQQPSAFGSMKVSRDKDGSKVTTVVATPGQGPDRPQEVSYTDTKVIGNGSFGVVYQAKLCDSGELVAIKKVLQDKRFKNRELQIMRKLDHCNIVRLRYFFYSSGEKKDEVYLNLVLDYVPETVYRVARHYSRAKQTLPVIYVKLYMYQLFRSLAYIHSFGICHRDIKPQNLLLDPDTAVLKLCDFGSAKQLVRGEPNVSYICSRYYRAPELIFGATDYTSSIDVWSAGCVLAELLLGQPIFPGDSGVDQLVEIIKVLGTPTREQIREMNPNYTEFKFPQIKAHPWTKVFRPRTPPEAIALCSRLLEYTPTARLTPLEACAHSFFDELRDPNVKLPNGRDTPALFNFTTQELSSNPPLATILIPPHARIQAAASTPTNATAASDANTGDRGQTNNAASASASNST
Protocol: Compounds of the present invention were screened for their ability to inhibit GSK-3β, (AA 1-420) activity using a standard coupled enzyme system (Fox et al., Protein Sci. 1998, 7, 2249). Reactions were carried out in a solution containing 100 mM HEPES (pH 7.5), 10 mM MgCl2, 25 mM NaCl, 300 μM NADH, 1 mM DTT and 1.5% DMSO. Final substrate concentrations in the assay were 20 μM ATP (Sigma Chemicals, St Louis, Mo.) and 300 μM peptide (American Peptide, Sunnyvale, Calif.). Reactions were carried out at 30° C. and 20 nM GSK-3b. Final concentrations of the components of the coupled enzyme system were 2.5 mM phosphoenolpyruvate, 300 μM NADH, 30 μg/ml pyruvate kinase and 10 μg/ml lactate dehydrogenase.
An assay stock buffer solution was prepared containing all of the reagents listed above with the exception of ATP and the test compound of the present invention. The assay stock buffer solution (175 μl) was incubated in a 96 well plate with 5 μl of the test compound of the present invention at final concentrations spanning 0.002 μM to 30 μM at 30° C. for 10 min. Typically, a 12 point titration was conducted by preparing serial dilutions (from 10 mM compound stocks) with DMSO of the test compounds of the present invention in daughter plates. The reaction was initiated by the addition of 20 μl of ATP (final concentration 20 μM). Rates of reaction were obtained using a Molecular Devices Spectramax plate reader (Sunnyvale, Calif.) over 10 min at 30° C. The Ki values were determined from the rate data as a function of inhibitor concentration.

JAK3 = biological target: T1, JAK3 (Homo sapiens, UniProt P52333); assay: JAK3 inhibition assay (ELISA, Poly (Glu, Ala, Tyr) coated plates); settings: 2 mM ATP, 60 minutes at 30° C.
T1 sequence (P52333 1-1124): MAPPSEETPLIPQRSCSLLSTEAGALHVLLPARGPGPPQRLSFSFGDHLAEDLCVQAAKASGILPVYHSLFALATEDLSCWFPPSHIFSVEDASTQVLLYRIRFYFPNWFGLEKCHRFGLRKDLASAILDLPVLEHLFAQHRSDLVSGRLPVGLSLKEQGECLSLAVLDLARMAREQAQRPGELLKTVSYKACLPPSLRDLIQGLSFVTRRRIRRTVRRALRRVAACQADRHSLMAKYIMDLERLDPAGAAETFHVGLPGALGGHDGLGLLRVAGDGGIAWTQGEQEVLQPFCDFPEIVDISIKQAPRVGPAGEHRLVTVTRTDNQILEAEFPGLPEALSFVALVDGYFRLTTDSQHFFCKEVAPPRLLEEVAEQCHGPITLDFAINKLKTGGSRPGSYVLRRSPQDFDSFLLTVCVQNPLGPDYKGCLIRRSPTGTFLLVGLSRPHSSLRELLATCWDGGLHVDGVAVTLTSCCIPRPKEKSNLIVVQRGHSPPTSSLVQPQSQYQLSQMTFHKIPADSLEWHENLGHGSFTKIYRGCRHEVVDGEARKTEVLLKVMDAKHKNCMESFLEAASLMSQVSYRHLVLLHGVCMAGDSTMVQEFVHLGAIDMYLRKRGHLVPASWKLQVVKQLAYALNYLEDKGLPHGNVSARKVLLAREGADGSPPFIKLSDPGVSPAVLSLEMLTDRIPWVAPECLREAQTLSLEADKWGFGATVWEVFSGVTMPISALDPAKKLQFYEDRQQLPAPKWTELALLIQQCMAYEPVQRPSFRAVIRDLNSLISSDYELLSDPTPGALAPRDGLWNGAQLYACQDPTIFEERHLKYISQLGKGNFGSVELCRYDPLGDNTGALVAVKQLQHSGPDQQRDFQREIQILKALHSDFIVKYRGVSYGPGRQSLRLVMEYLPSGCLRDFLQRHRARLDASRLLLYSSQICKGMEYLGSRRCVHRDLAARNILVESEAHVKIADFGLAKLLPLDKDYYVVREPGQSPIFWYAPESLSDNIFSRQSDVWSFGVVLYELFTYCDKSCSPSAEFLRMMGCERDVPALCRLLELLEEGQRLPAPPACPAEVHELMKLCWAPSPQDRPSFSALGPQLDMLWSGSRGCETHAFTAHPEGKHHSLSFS
Protocol: Compound inhibition of JAK3 was assayed by the method described by G. R. Brown, et al., Bioorg. Med. Chem. Lett. 2000, vol. 10, pp 575-579 in the following manner. Into Maxisorb plates, previously coated at 4° C. with Poly (Glu, Ala, Tyr) 6:3:1 then washed with phosphate buffered saline 0.05% and Tween (PBST), was added 2 mM ATP, 5 mM MgCl2, and a solution of compound in DMSO. The reaction was started with JAK enzyme and the plates incubated for 60 minutes at 30° C. The plates were then washed with PBST, […] HRP-Conjugated 4G10 antibody was added, and the plate incubated for 90 minutes at 30° C. The plate was again washed with PBST, […] TMB solution is added, and the plates were incubated for another 30 minutes at 30° C. Sulfuric acid ([…] of 1M) was added to stop the reaction and the plate is read at 450 nm to obtain the optical densities for analysis to determine IC50 values.

KDR = KDR (Homo sapiens, UniProt P35968); assay: KDR enzyme assay, coupled enzyme assay; settings: 300 μM ATP, 10 μM poly E4Y, 30 nM KDR, 37° C.
Sequence of KDR (P35968 20-1356): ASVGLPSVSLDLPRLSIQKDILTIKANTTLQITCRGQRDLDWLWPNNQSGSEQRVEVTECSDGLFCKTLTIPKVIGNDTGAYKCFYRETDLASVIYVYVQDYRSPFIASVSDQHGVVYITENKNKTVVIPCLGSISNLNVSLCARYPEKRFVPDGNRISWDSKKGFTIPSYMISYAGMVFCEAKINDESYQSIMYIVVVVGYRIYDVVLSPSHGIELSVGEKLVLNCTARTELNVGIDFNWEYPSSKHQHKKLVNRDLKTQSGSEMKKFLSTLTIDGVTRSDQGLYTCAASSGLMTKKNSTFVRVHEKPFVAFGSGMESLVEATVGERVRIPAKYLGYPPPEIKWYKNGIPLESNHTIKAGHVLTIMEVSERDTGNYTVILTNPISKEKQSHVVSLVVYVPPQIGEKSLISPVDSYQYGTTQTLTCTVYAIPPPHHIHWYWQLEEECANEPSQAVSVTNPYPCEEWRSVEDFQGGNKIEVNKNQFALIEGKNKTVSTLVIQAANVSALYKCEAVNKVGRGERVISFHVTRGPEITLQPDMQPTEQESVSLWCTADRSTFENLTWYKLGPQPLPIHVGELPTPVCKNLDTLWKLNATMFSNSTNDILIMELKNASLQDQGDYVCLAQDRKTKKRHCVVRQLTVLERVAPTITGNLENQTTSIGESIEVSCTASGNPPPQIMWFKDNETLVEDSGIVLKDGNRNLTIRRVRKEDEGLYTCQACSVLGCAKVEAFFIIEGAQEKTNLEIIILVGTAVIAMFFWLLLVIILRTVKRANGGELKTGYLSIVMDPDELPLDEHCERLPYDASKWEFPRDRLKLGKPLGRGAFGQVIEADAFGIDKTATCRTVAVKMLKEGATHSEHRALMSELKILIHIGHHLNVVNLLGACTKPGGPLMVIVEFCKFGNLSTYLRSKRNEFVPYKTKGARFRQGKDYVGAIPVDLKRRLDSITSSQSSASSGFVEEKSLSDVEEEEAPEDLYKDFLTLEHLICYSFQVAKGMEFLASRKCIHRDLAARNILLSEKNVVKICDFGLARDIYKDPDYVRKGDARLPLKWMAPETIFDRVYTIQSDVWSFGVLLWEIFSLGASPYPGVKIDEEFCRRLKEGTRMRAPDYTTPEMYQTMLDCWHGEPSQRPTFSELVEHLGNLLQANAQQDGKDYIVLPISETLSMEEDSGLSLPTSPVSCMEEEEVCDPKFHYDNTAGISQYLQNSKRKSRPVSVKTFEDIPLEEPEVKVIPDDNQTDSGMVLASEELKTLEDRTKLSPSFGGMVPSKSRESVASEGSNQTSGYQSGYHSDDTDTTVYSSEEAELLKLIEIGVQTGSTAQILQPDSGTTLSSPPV
Protocol: Compounds were screened for their ability to inhibit KDR using a standard coupled enzyme assay (Fox et al., Protein Sci., (1998) 7, 2249). Assays were carried out in a mixture of 200 mM HEPES 7.5, 10 mM MgCl2, 25 mM NaCl, 1 mM DTT and 1.5% DMSO. Final substrate concentrations in the assay were 300 μM ATP (Sigma Chemicals) and 10 μM poly E4Y (Sigma). Assays were carried out at 37° C. and 30 nM KDR. Final concentrations of the components of the coupled enzyme system were 2.5 mM phosphoenolpyruvate, 200 μM NADH, 30 μg/ML pyruvate kinase and 10 μg/ml lactate dehydrogenase.
An assay stock buffer solution was prepared containing all of the reagents listed above, with the exception of ATP and the test compound of interest. 177 μl of the stock solution was placed in a 96 well plate followed by addition of 3 μl of 2 mM DMSO stock containing the test compound (final compound concentration 30 μM). The plate was preincubated for about 10 minutes at 37° C. and the reaction initiated by addition of 20 μl of ATP (final concentration 300 μM). Rates of reaction were obtained using a Molecular Devices plate reader (Sunnyvale, Calif.) over a 5 minute read time at 37° C.

Sequence of c-Met (P08581 25-1390): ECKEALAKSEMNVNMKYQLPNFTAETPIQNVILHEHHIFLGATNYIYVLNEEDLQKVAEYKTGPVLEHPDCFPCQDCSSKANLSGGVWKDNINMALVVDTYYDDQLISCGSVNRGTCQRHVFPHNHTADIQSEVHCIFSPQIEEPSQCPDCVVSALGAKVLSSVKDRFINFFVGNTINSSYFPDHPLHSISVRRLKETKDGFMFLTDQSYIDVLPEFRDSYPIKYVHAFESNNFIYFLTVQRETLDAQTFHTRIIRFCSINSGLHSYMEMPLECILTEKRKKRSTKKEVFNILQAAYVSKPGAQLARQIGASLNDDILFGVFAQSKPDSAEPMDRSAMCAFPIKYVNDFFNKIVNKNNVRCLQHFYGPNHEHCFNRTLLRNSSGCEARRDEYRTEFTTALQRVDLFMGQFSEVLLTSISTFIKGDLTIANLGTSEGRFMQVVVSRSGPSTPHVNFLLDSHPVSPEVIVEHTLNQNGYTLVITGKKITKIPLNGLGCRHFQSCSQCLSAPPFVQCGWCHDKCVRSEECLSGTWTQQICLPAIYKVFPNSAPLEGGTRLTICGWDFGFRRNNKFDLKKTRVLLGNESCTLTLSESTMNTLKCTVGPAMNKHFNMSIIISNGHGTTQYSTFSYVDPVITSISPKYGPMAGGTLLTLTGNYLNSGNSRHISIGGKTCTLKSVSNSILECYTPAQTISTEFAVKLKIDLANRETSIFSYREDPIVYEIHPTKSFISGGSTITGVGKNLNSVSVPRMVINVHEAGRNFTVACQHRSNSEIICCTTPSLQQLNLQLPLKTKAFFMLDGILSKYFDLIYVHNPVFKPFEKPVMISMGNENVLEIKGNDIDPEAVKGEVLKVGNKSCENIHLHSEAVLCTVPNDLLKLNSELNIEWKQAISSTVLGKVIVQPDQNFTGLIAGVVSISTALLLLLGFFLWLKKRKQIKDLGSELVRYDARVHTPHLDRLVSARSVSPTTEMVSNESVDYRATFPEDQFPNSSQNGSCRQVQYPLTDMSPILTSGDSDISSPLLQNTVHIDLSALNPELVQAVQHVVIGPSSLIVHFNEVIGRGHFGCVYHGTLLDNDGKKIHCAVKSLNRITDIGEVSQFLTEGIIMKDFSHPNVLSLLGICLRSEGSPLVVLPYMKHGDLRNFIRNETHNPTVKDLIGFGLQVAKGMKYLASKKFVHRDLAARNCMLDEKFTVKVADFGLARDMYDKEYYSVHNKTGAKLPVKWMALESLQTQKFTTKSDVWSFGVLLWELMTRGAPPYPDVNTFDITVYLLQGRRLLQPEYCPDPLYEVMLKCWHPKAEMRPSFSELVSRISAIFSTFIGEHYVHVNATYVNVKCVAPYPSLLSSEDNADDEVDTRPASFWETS

SMILES	Ki (c-Met) [nM]	Ki (GSK-3β, (AA 1-420)) [nM]	Ki (JAK3) [nM]	Ki (KDR) [nM]
Fc1cccc(-n2nnnc2-c2c[nH]c3ncccc23)c1F [Compound 11, 3-[1-(2,3-Difluoro-phenyl)-1H-tetrazol-5-yl]-1H-pyrrolo [2,3-b]pyridine]	1000 to 12500			
CCNc1ccc2c(-c3oncc3-c3cccc(F)c3F)n[nH]c2n1 [Compound 30, {3-[4-(2,3-Difluoro-phenyl)-isoxazol-5-yl]-1H-pyrazolo[3,4-b]pyridin-6-yl}-ethyl-amine]	1000 to 12500			
CN(C)c1ccc2c(-c3oncc3-c3cccc(F)c3F)n[nH]c2n1 [Compound 32]	1000 to 12500			
Fc1cccc(-c2cnoc2-c2c[nH]c3c(F)cccc23)c1F [Compound 33, 3-[4-(2,3-Difluoro-phenyl)-isoxazol-5-yl]-7-fluoro-1H-indole]		1000 to 12500		
c1ccc(-c2cnoc2-c2c[nH]c3ncccc23)nc1 [Compound 50, 3-(4-Pyridin-2-yl-isoxazol-5-yl)-1H-pyrrolo[2,3-b]pyridine]			1000 to 12500	
COc1cccc(-c2cnoc2-c2c[nH]c3ncccc23)c1OC [Compound 51, 3-[4-(2,3-Dimethoxy-phenyl)-isoxazol-5-yl]-1H-pyrrolo[2,3-b]pyridine]	1000 to 12500		200 to 1000	1000 to 12500
c1cncc(-c2cnoc2-c2c[nH]c3ncccc23)c1 [Compound 52, 3-(4-Pyridin-3-yl-isoxazol-5-yl)-1H-pyrrolo[2,3-b]pyridine]	1000 to 12500	1000 to 12500	1000 to 12500	
N#Cc1ccc(-c2cnc3[nH]cc(-c4oncc4-c4cccc(F)c4F)c3c2)cc1 [Compound 89, 4-{3-[4-(2,3-Difluoro-phenyl)-isoxazol-5-yl]-1H-pyrrolo [2,3-b]pyridin-5-yl}-benzonitrile]	< 200	200 to 1000		< 200
Fc1cccc(-c2cnoc2-c2c[nH]c3nc(N4CCCC4)ccc23)c1F [Compound 100, 3-[4-(2,3-Difluoro-phenyl)-isoxazol-5-yl]-6-pyrrolidin-1-yl-1H-pyrrolo[2,3-b]pyridine]	1000 to 12500			
Fc1cccc(-c2cnoc2-c2c[nH]c3nc(Cl)ccc23)c1F [Compound 101, 6-Chloro-3-[4-(2,3-difluoro-phenyl)-isoxazol-5-yl]-1H-pyrrolo[2,3-b]pyridine]	1000 to 12500			
Fc1cccc(-n2cnnc2-c2c[nH]c3ncccc23)c1F [Compound 107, 3-[4-(2,3-Difluoro-phenyl)-4H-[1,2,4]triazol-3-yl]-1H-pyrrolo[2,3-b]pyridine]	1000 to 12500			
COC(=O)Cn1ccc2c(-c3oncc3-c3cccc(F)c3F)c[nH]c2c1=O [Compound 146, {3-[4-(2,3-Difluoro-phenyl)-isoxazol-5-yl]-7-oxo-1,7-di hydro-pyrrolo[2,3-c]pyridin-6-yl}-acetic acid methyl ester]	1000 to 12500			
O=c1c2[nH]cc(-c3oncc3-c3cccc(F)c3F)c2ccn1Cc1ccccc1 [Compound 147, 6-Benzyl-3-[4-(2,3-difluoro-phenyl)-isoxazol-5-yl]-1,6-dihydro-pyrrolo[2,3-c]pyridin-7-one]	1000 to 12500			
Fc1cccc(-c2cnoc2-c2n[nH]c3ncc(Br)cc23)c1F [Compound 148]	200 to 1000	1000 to 12500		200 to 1000
[O-][n+]1cccc2c(-c3oncc3-c3cccc(F)c3F)c[nH]c21 [Compound 151]	1000 to 12500	1000 to 12500		
